The text below walks through data of patent US7803766B2, “Gastrin compositions and formulations, and methods of use and preparation” (Warath Pharmaceuticals, Inc, priority 2002, dated 2010).

Where a SMILES comes first, the peptide text is derived from it. [ ]: non-standard residue; d: D form. pGlu = O=C1CC[C@@H](C(=O)O)N1

The conditions of data set [1]: cynomolgus monkey, in vivo.
Description: Male animals were used in the example. Each animal received gastrin by intravenous administration (3 μg/kg, 10 μg/kg and 30 μg/kg). The dosing solutions for intravenous injection were administered as a single bolus dose via the saphenous vein at a dose volume of 1 mL/kg. A 0.2 mL saline flush was administered following dosing in order to ensure administration of the complete dose volume. The actual volume administered to each animal was based on the animal's most recent body weight.
Serial blood samples (approximately 0.5 ml per time point) were collected via the brachial or femoral vein at the following time points: 0 (pre-dose), 1, 3, 5, 10, 15, 30 minutes, 1, 2, and 4 hours post dose.
Each sample was collected into a tube containing EDTA and kept on wet ice pending centrifugation. The samples were centrifuged under refrigeration for a minimum of 10 minutes at 1,500 g (RCF) and the resultant plasma was transferred into duplicate tubes and placed on dry ice. All samples were stored frozen for PK analysis as described below.
Gastrin in plasma samples was measured with a well established competitive radioimmunoassay for the quantitative determination of gastrin (Russell et al., Postgraduate Medical Journal 52:645, 1976). […] The antigen was labeled with ^125I and the presence of the antigen:antibody reactions were detected using a gamma counter. […]
In data set [2] the test system is NOD mice with recent onset diabetes. Briefly: Modified and unmodified gastrin in combination with GLP-1 in preventing diabetes progression in NOD mice with recent onset diabetes. The class given is in vivo. The conditions noted are these: 3 μg/kg/day gastrin equivalent with GLP-1 100 μg/kg/day i.p. daily for 14 days, compared to GLP-1 with native gastrin (Compound B). The text has this: In this example, the effect of treatment by a combination of GLP-1 and unmodified gastrin and GLP-1 and modified gastrin compounds/conjugates were examined in NOD mice with recent onset diabetes, to determine whether administration of both GLP-1 and gastrin would prevent severe hyperglycemia as well as increase pancreatic insulin content in NOD mice with recent-onset diabetes. The GLP-1 used was GLP-1 which is the biologically active fragment of human/mouse GLP-1 (having residues at positions 7-36 compared to the precursor from which the fragment is processed; obtained from Bachem H6795). […]
Non-obese diabetic (NOD) female mice, ages 12-14 weeks, were monitored for development of onset of diabetes (fasting blood glucose >8.0 to 15 mmol/l), and within 48 hours after onset of symptoms, four groups of mice were each treated as follows: one group was treated with vehicle only, and the other group was administered 100 μg/kg/day of GLP-1, and the remaining groups were treated with combination of GLP-1 (100 μg/kg/day) and gastrin compound (3 μg/kg/day gastrin equivalent), each treatment administered via the intraperitoneal route daily.
Therapy was administered for 14 days. Animals were monitored weekly for fasting blood glucose (FBG) levels. FBG levels were measured at about 12 hours after food had been withdrawn, and 24 hours after the last peptide or vehicle injection. […]

For data set [3] the following is noted: in vivo; cited from earlier work.

For `CC(C)C[C@H](NC(=O)[C@H](Cc1c[nH]c2ccccc12)NC(=O)CNC(=O)[C@H](Cc1ccc(O)cc1)NC(=O)[C@H](C)NC(=O)[C@H](CCC(=O)O)NC(=O)[C@H](CCC(=O)O)NC(=O)[C@H](CCC(=O)O)NC(=O)[C@H](CCC(=O)O)NC(=O)[C@H](CCC(=O)O)NC(=O)[C@H](CC(C)C)NC(=O)[C@H](Cc1c[nH]c2ccccc12)NC(=O)[C@@H]1CCCN1C(=O)CNC(=O)[C@@H]1CCC(=O)N1)C(=O)N[C@@H](CC(=O)O)C(=O)N[C@@H](Cc1ccccc1)C(N)=O` [Compound B] ([pGlu]GPWLEEEEEAYGWLDF-NH2), the “clearance from the bloodstream” value in data set [1] is “rapidly cleared”.
For “Compound E: N-terminal Cys, gastrin residues 2-17 of SEQ ID NO: 4, no linker (GPWLEEEEEAYGWLDF; N-terminal Cys)”, in data set [2], the “reduction of blood glucose levels” value is “more effecting in reducing blood glucose levels”.
Regarding “Gastrin-17: Native peptide hormone gastrin, 17-residue form (little gastrin or small gastrin)”, the circulating half-life in data set [3] is 5 to 9 min.
